The values below come from patent US12435077B2, “Oxazolidinone compound and methods of use thereof as an antibacterial agent” (priority 2020, dated 2025).

Data set [1] in a line: Plasma protein binding, dog plasma. The data set is classed as in vitro ADME. Here is the method:
(§1) Binding of compounds to plasma proteins from rat and dog was determined by equilibrium dialysis of the appropriate species plasma at 37° C. for 4 hours in the presence of 2.5 uM of test compound. Plasma samples were precipitated and separated by centrifugation. The supernatant was analyzed by mass spec detection (LC-MS/MS), using a standard curve for each compound. The fraction of unbound compound was calculated per the following: • Fraction Unbound (fu)=Peak Area Ratiobuffer/Peak Area Ratioplasma • where • Peak Area Ratiobuffer=Peak area ratio of analyte/internal standard in buffer • Peak Area Ratioplasma=Peak area ratio of analyte/internal standard in plasma

Data set [2] has as its system Mycobacterium tuberculosis (Mtb-GFP; H37Rv pMSP12::GFP). In kind it is cell-based. Conditions: pH 6.8, 7-day growth, 95% growth inhibition; for Mtb Cho MITC95: cholesterol as carbon source; for Mtb Glu MITC95: glucose as carbon source.
A short description of data set [3]: in vivo. The note with it: male, dog, iv. On the procedure: Plasma pharmacokinetic parameters for clearance, volume of distribution, half-life, mean residence time (MRT) and oral bioavailability were determined in dogs from oral administration and IV administration studies. Four male dogs, typically weighing 8-12 kilograms, were fasted overnight prior to dosing. Compounds were prepared for oral and IV dosing by addition to a vehicle, depending on the dose used. For a typical preparation, 1 mg per mL (IV) or 1.5 mg per mL (oral) of test compound was added to vehicle comprised of 20% dimethyl sulfoxide (DMSO), 60% polyethylene glycol 400 (PEG400) and 20% water. IV formulation was administered to two dogs via the saphenous or cephalic vein, and oral dosing was administered to two dogs via oral gavage. Blood was collected by the cephalic or jugular vein, typically at predose, 2, 8, 15, 30 mins, 1, 2, 4, 6, 8 and 24 hours post-dose for IV, and at predose, 15, 30 mins, 1, 2, 4, 6, 8, and 24 hours for oral dosing. Samples were collected in K2EDTA tubes, stored on ice, and centrifuged. Plasma was transferred to a micro titer plate and stored at −70° C. until analysis. Plasma samples were extracted using protein precipitation and analyzed by liquid chromatography separation followed by mass spec detection (LC-MS/MS), using a standard curve for each compound. Plasma pharmacokinetic parameters were calculated for IV and oral dosing data by non-compartmental methods. Oral bioavailability was determined as the ratio of the dose-normalized plasma area under the curve (AUC) following oral dosing verses IV dosing. Plasma pharmacokinetic parameters for clearance, volume of distribution, half-life, and mean residence time (MRT) were determined in dogs from IV cassette administration studies. Two male dogs, typically weighing 8-12 kilograms, were fasted overnight prior to dosing. Compounds were prepared for IV dosing by addition to a vehicle, depending on the dose used. For a typical preparation, 1 mg per mL (IV) of up to 5 test compounds were added to vehicle comprised of 20% dimethyl sulfoxide (DMSO), 60% polyethylene glycol 400 (PEG400) and 20% water. IV formulation was administered to two dogs via the saphenous or cephalic vein. Blood was collected by the cephalic or jugular vein, typically at predose, 2, 8, 15, 30 mins, 1, 2, 4, 6, 8 and 24 hours post-dose. Samples were collected in K2EDTA tubes, stored on ice, and centrifuged. Plasma was transferred to a micro titer plate and stored at −70° C. until analysis. Plasma samples were extracted using protein precipitation and analyzed by liquid chromatography separation followed by mass spec detection (LC-MS/MS), using a standard curve for each compound. Plasma pharmacokinetic parameters were calculated by non-compartmental methods.

Data set [4] in a line: in vivo. Conditions: male, rat, iv. On the procedure: Plasma pharmacokinetic parameters for clearance, volume of distribution, half-life and oral bioavailability were determined in rats from oral administration and IV administration studies. 4 male rats, typically weighing 225-260 gram, were fasted overnight prior to dosing. Compounds were prepared for oral and IV dosing by addition to a vehicle, depending on the dose used. For a typical preparation, 1 mg per mL (IV) or 1.5 mg per mL (oral) of test compound was added to vehicle comprised of 20% dimethyl sulfoxide (DMSO), 60% polyethylene glycol 400 (PEG400) and 20% water. Intravenous (IV) formulation was administered to two rats via pre-cannulated jugular vein, and oral dosing was administered to two rats via oral gavage. Blood was collected by pre-cannulated artery, typically at predose, 2, 8, 15, 30 min, 1, 2, 4, 6, and 8 hours post-dose for IV, and at predose, 15, 30 mins, 1, 2, 4, 6, 8 hours for oral dosing. Samples were collected in K2EDTA tubes, stored on ice, and centrifuged. Plasma was transferred to a micro titer plate and stored at −70° C. until analysis. Plasma samples were extracted using protein precipitation and analyzed by liquid chromatography separation followed by mass spec detection (LC-MS/MS), using a standard curve for each compound. Plasma pharmacokinetic parameters were calculated for IV and oral dosing data by non-compartmental methods. Oral bioavailability was determined as the ratio of the dose-normalized plasma area under the curve (AUC) following oral dosing vs. IV dosing. Plasma pharmacokinetic parameters for clearance, volume of distribution, half-life and mean residence time (MRT) were determined in rats from IV cassette administration studies. Two male rats typically weighing 225-260 gram, were fasted overnight prior to dosing. Compounds were prepared for IV dosing by addition to a vehicle, depending on the dose used. For a typical preparation, 1 mg per mL (IV) of up to 5 test compounds were added to vehicle comprised of 20% dimethyl sulfoxide (DMSO), 60% polyethylene glycol 400 (PEG400) and 20% water. IV formulation was administered to two rats via pre-cannulated jugular vein. Blood was collected by pre-cannulated artery, typically at predose, 2, 8, 15, 30 mins, 1, 2, 4, 6, and 8 hours postdose. Samples were collected in K2EDTA tubes, stored on ice, and centrifuged. Plasma was transferred to a micro titer plate and stored at −70° C. until analysis. Plasma samples were extracted using protein precipitation and analyzed by liquid chromatography separation followed by mass spec detection (LC-MS/MS), using a standard curve for each compound. Plasma pharmacokinetic parameters were calculated by non-compartmental methods.

Data set [5] is described as follows: Plasma protein binding, rat plasma. The data set is classed as in vitro ADME. Here is the method: as §1
For data set [6], the system named is mitochondrial protein synthesis in HepG2 cells. The data set can be described thus: Mitochondrial protein synthesis assay. In kind it is cell-based. Conditions: Homo sapiens, 96 h, 4 days, COX-I vs SDH-A / Janus Green, read-out: MPS IC50. On the procedure: Inhibition of mitochondrial protein synthesis was assessed in HepG2 cells by comparing the levels of two subunits of oxidative phosphorylation enzyme complexes, subunit I of Complex IV (COX-I) and the 70 kDa subunit of Complex II (SDH-A). COX-I is mitochondrial DNA encoded and SDH-A is nuclear DNA encoded.

The mark [7] stands for this setting: comparison compounds from WO2017/070024, read-out: Dog fu.
[8] abbreviates: comparison compounds from WO2017/070024, read-out: Rat fu.

A word on the MRT: it is the average time that molecules of a dose stay in the body. The clearance is the volume of plasma or blood freed of the substance per unit of time. A low value points to inefficient removal. The Vd is a proportionality between amount in the body and measured concentration, not a real space. High values mean wide distribution into tissue, low ones little distribution into tissue. Consider `COC(=O)NC[C@H]1CN(c2cc(F)c(N3CCS(=O)(=O)CC3)c(F)c2)C(=O)O1` [Example 1, methyl ({(5S)-3-[4-(1,1-dioxo-1λ^6-thiomorpholin-4-yl)-3,5-difluorophenyl]-2-oxo-1,3-oxazolidin-5-yl}methyl)carbamate], for which the fraction unbound at 4 h, 2.5 uM in data set [1] (equilibrium dialysis, 37° C., 4 hours, 2.5 uM, read-out: Dog fu) was determined as 0.69. Also, in data set [2], the “Mtb Cho MITC95” value turned out to be 1.16 µM and the “Mtb Glu MITC95” value is 0.71 µM. In “in vivo [3]”, the mean residence time (MRT) stood at 12.6 h and the clearance worked out at 1.9 mL/min/kg. Besides, in the data set “in vivo [4]”, the MRT came out at 1.7 h, the volume of distribution (Vd) stood at 0.9 L/kg and the clearance is 8.5 mL/min/kg. Also, in data set [5] (equilibrium dialysis, 37° C., 4 hours, 2.5 uM, read-out: Rat fu), the fraction unbound at 4 h, 2.5 uM is 0.42.

For `NC[C@H]1CN(c2cnc(N3CCS(=O)(=O)CC3)c(F)c2)C(=O)O1` [Example 48 from WO2017/070024], the fraction unbound at 4 h, 2.5 uM was 0.87 in data set [1] (setting [7]) and 0.83 in data set [5] (setting [8]). Further, the MRT in the data set “in vivo [3]” was determined as 1.3 h; in the data set “in vivo [4]”, 0.5 h. Moreover, the distribution volume (Vd) was 1.5 L/kg in the data set “in vivo [3]” and 2.5 L/kg in “in vivo [4]”. Further, the clearance was found to be 18 mL/min/kg in “in vivo [3]” and 85 mL/min/kg in the data set “in vivo [4]”.

For the compound `NC[C@H]1CN(c2cc(F)c(N3CCOCC3)c(F)c2)C(=O)O1` [Example 59 from WO2017/070024], the fraction unbound at 4 h, 2.5 uM in data set [1] (setting [7]) is 0.81. Besides, in the data set “in vivo [3]”, the mean residence time MRT came to 1.3 h, the distribution volume (Vd) came to 4.2 L/kg and the clearance stood at 53 mL/min/kg. Also, in the data set “in vivo [4]”, the MRT was 0.8 h, the Vd was determined as 2 L/kg and the clearance stood at 43 mL/min/kg. Moreover, in data set [5] (setting [8]), the fraction unbound at 4 h, 2.5 uM came out at 0.57.

One may read the IC50 as the concentration that inhibits the measured activity by half. As to `CC(=O)NC[C@H]1CN(c2ccc(N3CCOCC3)c(F)c2)C(=O)O1` [linezolid], in data set [2], the “Mtb Cho MITC95” value was determined as 3.14 µM and the “Mtb Glu MITC95” value stood at 4.58 µM. Moreover, in data set [6], the IC50 amounted to 8 µM.
